Results from patent US20230053540A1, “TREATMENT OF LIVER INJURY” (Massachusetts Institute of Technology, priority 2019, published 2023).

Tested on: hepatocytes
Experiment: Seq-Well scRNA-Seq of hepatocytes after APAP overdose (signature scores, DEG vs untreated)
Type: in vivo, mouse
Settings: A6 vs UT

**Q.** Which “Insig2 avg_logFC” value does the source give for `CC(=O)Nc1ccc(O)cc1` [APAP, acetaminophen] here?
**A.** 0.67

**Q.** What about the “Iqgap1 avg_logFC” value of the same compound?
**A.** 0.4554

**Q.** What about the “Iqgap1 pct.1” value of the same compound?
**A.** 0.162

**Q.** What about the “Itgb2 avg_logFC” value of the same compound?
**A.** 0.2723

**Q.** What about the “Itgb2 pct.1” value of the same compound?
**A.** 0.105

**Q.** And the “Itih2 avg_logFC” value?
**A.** 0.5011

**Q.** And the “Ivns1abp A6logFC” value?
**A.** 0.3566

**Q.** And the “Jak1 avg_logFC” value?
**A.** 0.6039

**Q.** What about the “Jmjd1c avg_logFC” value of the same compound?
**A.** 0.6366

**Q.** And the “Kctd3 avg_logFC” value?
**A.** 0.2608

**Q.** And the “Kctd3 pct.1” value?
**A.** 0.239

**Q.** What about the “Kdelr2 A6logFC” value of the same compound?
**A.** 0.3977

**Q.** What about the “Kdelr2 avg_logFC” value of the same compound?
**A.** 0.3977

**Q.** And the “Kdelr2 pct.1” value?
**A.** 0.484

**Q.** And the “Kdm5a A6logFC” value?
**A.** 0.3514

**Q.** And the “Kdm5a avg_logFC” value?
**A.** 0.3514

**Q.** What about the “Kdm5a pct.1” value of the same compound?
**A.** 0.308

**Q.** And the “Khk avg_logFC” value?
**A.** −0.4915

**Q.** What about the “Khk pct.1” value of the same compound?
**A.** 0.702

**Q.** What about the “Kif1b avg_logFC” value of the same compound?
**A.** 0.3718

**Q.** What about the “Kif1b pct.1” value of the same compound?
**A.** 0.527

**Q.** And the “Kif5b avg_logFC” value?
**A.** 0.5012

**Q.** And the “Kif5b pct.1” value?
**A.** 0.494

**Q.** What about the “Kif21a A6logFC” value of the same compound?
**A.** 0.4042

**Q.** And the “Klf3 A6logFC” value?
**A.** 0.2674

**Q.** And the “Klf3 avg_logFC” value?
**A.** 0.2674

**Q.** And the “Klf3 pct.1” value?
**A.** 0.301

**Q.** And the “Klf6 avg_logFC” value?
**A.** 0.7324

**Q.** And the “Klf15 avg_logFC” value?
**A.** −0.4518

**Q.** What about the “Klf15 pct.1” value of the same compound?
**A.** 0.208

**Q.** What about the “Kmo avg_logFC” value of the same compound?
**A.** −0.3844

**Q.** And the “Kmo pct.1” value?
**A.** 0.487

**Q.** And the “Krt8 avg_logFC” value?
**A.** 1.196

**Q.** What about the “Krt18 avg_logFC” value of the same compound?
**A.** 1.258

**Q.** What about the “Lactb2 avg_logFC” value of the same compound?
**A.** −0.5965

**Q.** And the “Laptm5 avg_logFC” value?
**A.** 0.3382

**Q.** What about the “Laptm5 pct.1” value of the same compound?
**A.** 0.124

**Q.** And the “Lars2 avg_logFC” value?
**A.** 1.392

**Q.** And the “Lcn2 avg_logFC” value?
**A.** 0.4122

**Q.** And the “Lcn2 pct.1” value?
**A.** 0.301

**Q.** And the “Ldlr A6logFC” value?
**A.** 0.282

**Q.** What about the “Ldlr avg_logFC” value of the same compound?
**A.** 0.282

**Q.** What about the “Ldlr pct.1” value of the same compound?
**A.** 0.432

**Q.** And the “Lgals9 A6logFC” value?
**A.** −0.27

**Q.** What about the “Lgals9 avg_logFC” value of the same compound?
**A.** −0.27

**Q.** And the “Lgals9 pct.1” value?
**A.** 0.621

**Q.** What about the “Lgmn avg_logFC” value of the same compound?
**A.** 0.4846

**Q.** What about the “Lgmn pct.1” value of the same compound?
**A.** 0.246

**Q.** What about the “Lifr avg_logFC” value of the same compound?
**A.** −0.6262

**Q.** And the “Lipc A6logFC” value?
**A.** −0.2548

**Q.** What about the “Lipc avg_logFC” value of the same compound?
**A.** −0.2548

**Q.** And the “Lipc pct.1” value?
**A.** 0.401

**Q.** What about the “Litaf avg_logFC” value of the same compound?
**A.** 0.3944

**Q.** And the “Litaf pct.1” value?
**A.** 0.451

**Q.** What about the “Lmo4 avg_logFC” value of the same compound?
**A.** 0.3205

**Q.** What about the “Lmo4 pct.1” value of the same compound?
**A.** 0.308

**Q.** What about the “Lonp2 avg_logFC” value of the same compound?
**A.** −0.4674

**Q.** And the “Lonp2 pct.1” value?
**A.** 0.561

**Q.** And the “Lpgat1 avg_logFC” value?
**A.** 0.5952

**Q.** And the “Lpin2 avg_logFC” value?
**A.** 0.6867

**Q.** What about the “Lrg1 avg_logFC” value of the same compound?
**A.** 0.4908

**Q.** What about the “Lrrc58 avg_logFC” value of the same compound?
**A.** 1.001

**Q.** And the “Lrrc59 avg_logFC” value?
**A.** 0.3772

**Q.** What about the “Lrrc59 pct.1” value of the same compound?
**A.** 0.422

**Q.** What about the “Lrrfip1 avg_logFC” value of the same compound?
**A.** 0.4459

**Q.** And the “Lrrfip1 pct.1” value?
**A.** 0.37

**Q.** What about the “Lsmd1 A6logFC” value of the same compound?
**A.** −0.3131

**Q.** What about the “Lyst avg_logFC” value of the same compound?
**A.** 0.4093

**Q.** And the “Lyst pct.1” value?
**A.** 0.31

**Q.** What about the “Lyz2 avg_logFC” value of the same compound?
**A.** 0.7322

**Q.** And the “Maff avg_logFC” value?
**A.** 0.3553

**Q.** And the “Maff pct.1” value?
**A.** 0.224

**Q.** And the “Magi3 A6logFC” value?
**A.** 0.27

**Q.** What about the “Magi3 avg_logFC” value of the same compound?
**A.** 0.27

**Q.** And the “Magi3 pct.1” value?
**A.** 0.303

**Q.** What about the “Malat1 avg_logFC” value of the same compound?
**A.** 0.9206

**Q.** What about the “Malat1 pct.1” value of the same compound?
**A.** 0.871

**Q.** And the “Man2a1 avg_logFC” value?
**A.** 0.4971

**Q.** And the “Map2k3 avg_logFC” value?
**A.** 0.4347

**Q.** And the “Map2k3 pct.1” value?
**A.** 0.427

**Q.** And the “Map3k2 A6logFC” value?
**A.** 0.2518

**Q.** And the “Map3k2 avg_logFC” value?
**A.** 0.2518

**Q.** What about the “Map3k2 pct.1” value of the same compound?
**A.** 0.265

**Q.** What about the “Mapk6 A6logFC” value of the same compound?
**A.** 0.2568

**Q.** And the “Mapk6 avg_logFC” value?
**A.** 0.2568

**Q.** And the “Mapk6 pct.1” value?
**A.** 0.303

**Q.** And the “Mapkapk2 A6logFC” value?
**A.** 0.3138

**Q.** And the “Mapkapk2 avg_logFC” value?
**A.** 0.3138

**Q.** What about the “Mapkapk2 pct.1” value of the same compound?
**A.** 0.396

**Q.** What about the “Mat1a avg_logFC” value of the same compound?
**A.** 0.7908

**Q.** And the “Mat2a avg_logFC” value?
**A.** 0.4826

**Q.** And the “Mat2a pct.1” value?
**A.** 0.487

**Q.** What about the “Mbl1 avg_logFC” value of the same compound?
**A.** −0.713

**Q.** And the “Mbnl1 avg_logFC” value?
**A.** 0.4513

**Q.** And the “Mbnl1 pct.1” value?
**A.** 0.492

**Q.** And the “Mcee A6logFC” value?
**A.** −0.3199

**Q.** What about the “Mcl1 avg_logFC” value of the same compound?
**A.** 0.5709

**Q.** What about the “Mcl1 pct.1” value of the same compound?
**A.** 0.573

**Q.** What about the “Mcm10 avg_logFC” value of the same compound?
**A.** −0.4874

**Q.** And the “Mdn1 avg_logFC” value?
**A.** 0.318

**Q.** What about the “Mdn1 pct.1” value of the same compound?
**A.** 0.251
